Marks after values point to notes of the source that are not given here.
Legend:
[1] = test system: bleomycin-induced interstitial pneumonia (pulmonary fibrosis) model; experiment: Pulmonary fibrosis level by tissue staining (Aschcroft score) in bleomycin-induced model; assay type: in vivo, mouse; conditions: day 40
Description: (§1) Female C57BL/6 mice (about 15 g, 6-week-old) in 4 mice per group (n=4) were intraperitoneally administered with bleomycin 5 times a day every other day (total dose: 200 mg/kg) to prepare a model with bleomycin-induced interstitial pneumonia (pulmonary fibrosis).
(§2) Using the bleomycin-induced interstitial pneumonia (pulmonary fibrosis) model prepared in Experimental Example 1, the effect of the present invention on induced interstitial pneumonia (pulmonary fibrosis) was examined.
(§3) Y-27632 was intraperitoneally administered immediately before bleomycin administration from the first day of bleomycin administration (0th) to day 8 (5th administration), and thereafter until day 40, by way of a single, alternate-day administration. At day 40, the level of fibrosis was checked by hydroxyproline content and tissue staining. The hydroxyproline content was measured according to the report of Tran et al. (Tran et al., J. Clin. Invest., 99: 608-617, 1997). The degree of fibrosis by tissue staining was evaluated by the Aschcroft score (Aschcroft et al., J. Clin. Pathol., 41: 467-70, 1988).
Y-27632 suppressed the increase of Aschcroft score due to bleomycin administration at the dose of not less than 10 μg/kg (Table 2). In the Table, *:p<0.05, **:p<0.01.

ROCK-II gene = experiment: Expression of ROCK-II gene in the lung, real time quantitative RT-PCR; assay type: in vivo, mouse
Description: as §1
The expression of ROCK-II gene in the lung at 7, 14, 21 and 40 days after the start of the bleomycin administration was measured, and so was the value of an animal free of bleomycin administration. The amount of the expression of the ROCK-II gene was measured according to a real time quantitative RT-PCR method. As the primer, the following sequence was used [forward: CATGGTGCATTGCGACACA (SEQ ID No. 1), reverse: […] (SEQ ID No. 2)]. The amount of expression of the ROCK-II gene was expressed relatively in [(Rock-II m RNA)/(GAPDH m RNA)] using the expression amount of GAPDH (glyceraldehyde-3-phosphate dehydrogenase) gene as a standard. The results are shown in mean±SEM (n=4). For the test, (Satical analysis was performed One-way ANOVA test followed by Fisher's least significance test) was performed.

[2] = test system: bleomycin-induced interstitial pneumonia (pulmonary fibrosis) model; experiment: Hydroxyproline content in bleomycin-induced interstitial pneumonia (pulmonary fibrosis) model; assay type: in vivo, mouse; conditions: day 40
Description: as §1, §2, §3
The suppression percentage was calculated based on the bleomycin alone administration group as 0% suppression, and the physiological saline administration group as 100% suppression.

[3] = test system: bleomycin-induced interstitial pneumonia (pulmonary fibrosis) model; experiment: Number of inflammatory cells in bronchoalveolar lavage fluid (BALF) in bleomycin-induced model; assay type: in vivo, mouse
Description: as §1
Using the pulmonary fibrosis model administered with bleomycin as in Experimental Example 1, the effect of Y-27632 on the number of various inflammatory cells in BALF was examined.
The dose of Y-27632 was administered every other day at the lo dose of 100 μg/kg in the same manner as in Experimental Example 2. BALF was recovered at day 7, day 14, day 21 and day 40 from the start of the bleomycin administration, and the number of total cells, macrophages, lymphocytes and neutrophils was counted (n=5). The number of total cells was measured by a hemocytometer. Smear preparations of the various cells in BALF were prepared by cytospin (Auto Smer CF-12D, Chiyoda seisakusho, Tokyo, Japan), stained with May-Gruenwald and subjected to the counting under a microscope.
The results are shown in mean±SEM (n=5). For the test, (Satical analysis was performed One-way ANOVA test followed by Fisher's least significance test) was performed (*p<0.05; BLM group vs Y-27632 group) (§p<0.05; BLM group vs Normal group) (+p<0.05; Y-27632 group vs Normal group).

[4] = test system: Mouse alveolar macrophage-derived cell line (MH-S cell); experiment: Cell chemotaxis (Boyden chamber), MH-S cell; assay type: cell-based; conditions: 2 h, MH-S cells, migration by LPS (1 μg/ml), 37° C. 120 min, n=6, mean±SEM, read-out: IC50 of suppression of migration
Description: (§4) Mouse alveolar macrophage-derived cell line (MH-S cell), fibroblast (NIH3T3 cell) and mouse neutrophil were used. Casein was intraperitoneally administered to the mouse and the mouse neutrophil was isolated from ascites thereof after 6 h. The cell chemotaxis was measured by a Boyden chamber (chemotaxicell, KURABO, Japan). The pore size of the filter used was 5 μm for MH-S cell and neutrophil, and 8 μm for NIH3T3 cell. As a chemotactic factor, lipopolysaccharide (LPS, E.coli: B-4, Sigma, St Louis, Mo., USA) was used for MH-S cell, mouse interleukin 1β (IL-1β, Genzyme/techne, USA) was used for neutrophil, and a […] (PDGF-BB, UBI, Lake Placid, USA) was used for NIH3T3 cell. The chemotactic factors were added to a lower layer and Y-27632 were added to a higher layer at various concentrations. The reaction was carried out at 37° C. for 120 min for MH-S cell and NIH3T3 cell and 37° C. for 90 min for neutrophil. After the completion of the reaction, migrated cells were stained with Giemsa (Muto, CO., Ltd, Japan) and the cells were counted. The value is in mean±SEM.

mouse neutrophil = experiment: Cell chemotaxis (Boyden chamber), mouse neutrophil; assay type: cell-based; conditions: 1.5 h, neutrophils, migration by IL-1. (5 ng/ml), 37° C. 90 min, n=6, mean±SEM, read-out: IC50 of suppression of migration
Description: as §4

fibroblast (NIH3T3 cell) = experiment: Cell chemotaxis (Boyden chamber), NIH3T3 cell; assay type: cell-based; conditions: Mus musculus, 2 h; NIH3T3 cells, migration by PDGF-BB (10 ng/ml), 37° C. 120 min, n=6, mean±SEM; read-out: IC50 of suppression of migration
Description: as §4

[5] = Y-27632 alone 1000 μg/kg (no bleomycin)
[6] = Y-27632 100 μg/kg every other day vs BLM group, days 7-40

For bleomycin, the “Aschcroft score (mean ± standard error)” value ([1]; bleomycin alone (total dose 200 mg/kg i.p.)) was 3.54 ± 0.43, the “Expression amount of ROCK-II gene (ROCK-II mRNA/GAPDH mRNA) vs bleomycin non-administration group” value (ROCK-II gene; day 7 and day 21, bleomycin total dose 200 mg/kg i.p.) was “significantly high” and the “Increase of expression amount of ROCK-II gene relative to bleomycin non-administration group” value (ROCK-II gene; day 21, bleomycin total dose 200 mg/kg i.p.) was “about 9 times”.

For `C[C@@H](N)[C@H]1CC[C@H](C(=O)Nc2ccncc2)CC1` [Y-27632, (+)-trans-4-(1-aminoethyl)-1-(4-pyridylcarbamoyl)cyclohexane 2HCl.1H2O], the “Suppression (%) of the increase of hydroxyproline content” value [2, 5] was 92.1%, the “Suppression (%) of the increase of hydroxyproline content” value ([2]; bleomycin + Y-27632 0.01 μg/kg i.p. alternate-day) was −10.6% and the “Suppression (%) of the increase of hydroxyproline content” value ([2]; bleomycin + Y-27632 0.1 μg/kg i.p. alternate-day) was 28.2%. The “Suppression (%) of the increase of hydroxyproline content” value ([2]; bleomycin + Y-27632 1 μg/kg i.p. alternate-day) was 30.0%, the “Suppression (%) of the increase of hydroxyproline content” value ([2]; bleomycin + Y-27632 10 μg/kg i.p. alternate-day) was 38.6% and the “Suppression (%) of the increase of hydroxyproline content” value ([2]; bleomycin + Y-27632 100 μg/kg i.p. alternate-day) was 53.8%. For the same compound, the “Effect on the increase of hydroxyproline content due to bleomycin administration” value ([2]; i.p. alternate-day) was “dose-dependently suppressed”, the “Aschcroft score (mean ± standard error)” value [1, 5] was 1.33 ± 0.21 and the “Aschcroft score (mean ± standard error)” value ([1]; bleomycin + Y-27632 0.1 μg/kg) was 2.79 ± 0.26. For the same compound, the “Aschcroft score (mean ± standard error)” value ([1]; bleomycin + Y-27632 10 μg/kg, p<0.01) was 1.85 ± 0.26**, the “Aschcroft score (mean ± standard error)” value ([1]; bleomycin + Y-27632 100 μg/kg, p<0.05) was 1.98 ± 0.41* and the “Dose suppressing the increase of Aschcroft score due to bleomycin administration” value [1] was “not less than 10 μg/kg”. For the same compound, the “Number of macrophages in BALF” value [3, 6] was “significantly lower results than BLM group”, the “Number of neutrophils in BALF” value [3, 6] was “significantly lower results than BLM group” and the “Number of total cells in BALF” value [3, 6] was “significantly lower results than BLM group”. For the same compound, the “Lymphocyte counts in BALF” value ([3]; Y-27632 100 μg/kg every other day, BLM, Y-27632 and Normal groups) was “did not show a significant difference among 3 groups”, the IC50 [4] was 4.8 ± 2 µM and the IC50 (mouse neutrophil) was 8.4 ± 2.1 µM. It also gave an IC50 (fibroblast (NIH3T3 cell)) of 1.6 ± 0.5 µM.

Source: US6844354B1, “Agent for prophylaxis and treatment of interstitial pneumonia and pulmonary fibrosis” (Mitsubishi Pharma Corporation, priority 1999, dated 2005)
